Laboratory results reported in article PMC10630452, “The tumor-enriched small molecule gambogic amide suppresses glioma by targeting WDR1-dependent cytoskeleton remodeling” (Signal Transduction and Targeted Therapy, 2023).

Legend:
[1] = tested on: PDCs and GSCs; assay: Transwell cell invasion assay; assay type: cell-based; conditions: 0.1 μM and 0.3 μM, 48–72 h
Experimental: First, cells were starved for 12 h. The top surface of the membrane in the upper transwell chamber was coated with Matrigel (dilution ratio, 1:100, Corning, USA) by incubation for 30 min. Cells were plated in the upper chamber with serum-free neurobasal medium containing the corresponding concentration of GA-amide, and 600 μL of neurobasal medium containing 10% FBS and the same concentration of GA-amide was added to the lower chamber for 24–72 h of culture. Next, the cells in the transwell chamber were fixed with 4% paraformaldehyde for 20 min. After noninvaded cells in the upper chamber were removed by wiping, the remaining cells were stained with 1% crystal violet staining solution for 20 min and washed with double-distilled water. Finally, cell invasion was evaluated by microscopy.

[2] = biological target: T1, TrkA (Homo sapiens, UniProt P04629); assay: Western blot of TrkA phosphorylation in GSCs; assay type: cell-based; conditions: GSC2 and U87MG-SLC cells, 4 hours
T1 construct: endogenous in cells; host or cells: GSC2 and U87MG-SLC glioma stem cells
Experimental: Proteins in the samples were separated on SDS–polyacrylamide gels and transferred to nitrocellulose membranes (Amersham, Sweden). After blocking with 5% skim milk, the membranes were incubated with the indicated primary antibodies listed in Supplementary Table 3 overnight. After washing with 1 × TBST three times, the membranes were incubated with secondary antibodies, and protein bands were detected by using ECL reagent.
Supplementary Fig. 5 TrkA was not the functional target for GA-amide to inhibit glioma. a Western blot analyses of the TrkA and p-TrkA expression in GSC2 and U87MG-SLC cells with GA-amide treatment for 4 hours. b Western blot analyses of the p-TrkA expression in GSC2 with GA-amide treatment for different times. c, d The combination effects of GA-amide with GW441756, a TrkA inhibitor, or with K252a, an inhibitor of Trk family in GSC2 (c) and U87MG-SLC (d) (48 hours, n = 3).

[3] = tested on: glioma-related cells (PDCs, GCs and GSCs); assay: IC50 assay (MTS cell viability), span over cell lines; assay type: cell-based; conditions: span over PDC, GC and GSC lines
Experimental: Four PDC lines (T12-1, T12-2, T2-4, T19-1) obtained from the Beijing Tiantan Hospital[53] and three GSC lines (GSC2, U87MG-SLC, U251-SLC) were established and verified in our previous work.[17] Two GCSC lines were kindly provided by Dr. Ran.[54] These cell lines were cultured in neurobasal medium (Gibco) containing 2% B27 (Gibco), 1% 100 × Antibiotic-Antimycotic (Gibco), 2 mmol/L L-glutamine (catalog SH30034.01, HyClone), 20 ng/mL bFGF (catalog 100-18B-50UG, PeproTech), 20 ng/mL EGF (catalog AF-100-15-100UG, PeproTech), and 10 μg/mL heparin (Sigma‒Aldrich). H1-NSCs obtained from D.Q. Pei’s laboratory (Guangzhou Institutes of Biomedicine and Health, Chinese Academy of Sciences, Guangzhou, China), were cultured in the same medium as the PDCs, with the addition of 1% N-2 supplement (Gibco, Thermo Fisher Scientific). The human astrocyte (HA) cell line was purchased from ScienCell and cultured in commercial astrocyte medium (catalog 1801, ScienCell) supplemented with 1% AGS (ScienCell), 2% FBS (ScienCell) and 1% P/S solution (ScienCell). […]
Cells were seeded in 96-well plates and treated with 0, 0.03, 0.1, 0.3, 1, 3, 10, or 30 μM GA-amide (Santa Cruz) in triplicate. After 48 h of incubation, cell viability was quantified using the MTS assay, and the GA-amide cytotoxicity curve was estimated using GraphPad Prism.

[4] = tested on: intracranial orthotopic glioma PDX; assay: Intracranial orthotopic PDX model (GBM2); assay type: in vivo, NSG mice; conditions: 1 mg/kg i.v. daily for 10 days
Experimental: Fig. 3 The inhibitory effects of GA-amide in glioma stem cell-derived mouse models and transgenic mouse models. a, b GSC2 cells were implanted s.c. into nude mice. Mice were treated with control (DMSO) (n = 7) or GA-amide (2 mg/kg) (n = 8) via i.p. injection once daily for 11 days, after which a photograph (a) was taken to show the tumor volume, and the tumor volume was calculated by a modified ellipsoid formula in (b). c, d GSC2 cells were implanted intracranially into nude mice. Mice were injected i.v. with control (n = 8) or 1 mg/kg GA-amide (n = 8) daily for 13 days, the Mantel‒Cox log–rank test was used for analysis, and the relative survival curves are shown in (c). The body weights are shown in (d). e In vivo efficacy studies of GA-amide using transgenic mouse models. Glioma was induced in transgenic C57BL/6 mice by injection of pTomo-Ras-sip53 lentivirus, and the strategy is shown. f, g MRI analysis was used to group mice into the control (n = 7) and GA-amide-treated groups (n = 8) before treatment. […]
For the intracranial PDX model, the tumor tissue (GBM2) will be mechanically minced using scissors and then […] NSG mice (Male, 6–8 weeks). […] After 7 days of tumor development, the mice were grouped dependent on the tumor size measured by MRI. […] After treatment, the tumor size was measured by MRI again.

T1 sequence (P04629 33-796): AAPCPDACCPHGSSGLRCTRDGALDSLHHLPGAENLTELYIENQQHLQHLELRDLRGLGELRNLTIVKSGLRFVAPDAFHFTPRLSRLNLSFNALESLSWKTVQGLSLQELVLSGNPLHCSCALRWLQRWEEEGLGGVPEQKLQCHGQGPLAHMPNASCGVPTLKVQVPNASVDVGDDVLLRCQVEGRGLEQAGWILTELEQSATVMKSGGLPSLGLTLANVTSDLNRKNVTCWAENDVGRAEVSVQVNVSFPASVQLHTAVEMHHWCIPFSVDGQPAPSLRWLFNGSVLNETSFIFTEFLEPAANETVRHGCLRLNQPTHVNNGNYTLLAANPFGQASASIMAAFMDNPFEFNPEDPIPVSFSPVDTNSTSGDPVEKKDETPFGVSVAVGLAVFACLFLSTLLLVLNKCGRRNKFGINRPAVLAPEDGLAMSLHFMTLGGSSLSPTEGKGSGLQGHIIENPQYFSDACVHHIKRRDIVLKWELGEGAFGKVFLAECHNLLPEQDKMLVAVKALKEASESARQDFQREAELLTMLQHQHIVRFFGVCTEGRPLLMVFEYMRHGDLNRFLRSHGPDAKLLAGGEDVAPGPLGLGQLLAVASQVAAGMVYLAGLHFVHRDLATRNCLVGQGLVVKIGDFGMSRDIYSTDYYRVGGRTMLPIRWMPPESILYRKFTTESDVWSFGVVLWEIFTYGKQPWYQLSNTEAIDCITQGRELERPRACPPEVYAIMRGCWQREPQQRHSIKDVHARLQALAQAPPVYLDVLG

## CC(C)=CCC[C@]1(C)C=Cc2c(O)c3c(c(CC=C(C)C)c2O1)O[C@]12C(=C[C@@H]4CC1C(C)(C)O[C@@]2(C/C=C(/C)C(N)=O)C4=O)C3=O [GA-amide, gambogic amide]
[1]
  number of invading cells (transwell): significant decrease in the number of invading PDCs and GSCs
[2]
  TrkA phosphorylation: TrkA was phosphorylated at Y751 and Y490 in GSCs
[3]
  IC50: 133 to 399 nM
[4]
  tumor volume by MRI versus control: significantly smaller compared to the control mice
